Structures can show the parent of a compound that is named as a salt.
Legend:
[1] = test system: Sprague-Dawley derived rats; experiment: Prevention of sensitized locomotor stimulant response to nicotine (Example 1); type: in vivo, rat; conditions: lower doses; nicotine test on day 9
[2] = test system: vagotomized, pithed and artificially respired rats; experiment: Pithed rat: plasma catecholamine responses, HPLC (Example 3); type: in vivo
Excerpt: The aim of the study was to determine whether mecamylamine and its stereoisomers have any effect on pressor responses and increases in plasma catecholamines in response to sympathetic nerve stimulation.
In the vagotomized, pithed and artificially respired rats (with oxygen mixed with air), the cardiovascular responses to test compounds measured were mean arterial blood pressure and heart rate; and the catecholamine responses measured were plasma norepinephrine, epinephrine and dopamine. These variables were measured in rats at rest and after electrical stimulation of sympathetic outflow at 0.2 Hz, 0.8 Hz, and 2.2 Hz for a one-minute duration (50 V, 1 msec pulse), and before and after administration of vehicle or a drug. Catecholamine assays were performed by specific HPLC testing. […] Statistical analysis were applied as appropriate.
Plasma catecholamine (CA) levels—norepinephrine (NE), epinephrine (EPI), and dopamine (DA)—were measured by HPLC with an electrochemical detector following administration of doses of all forms of mecamylamine.

Sprague-Dawley rats [3] = experiment: Mecamylamine blockade of nicotine-induced seizures (Example 2); type: in vivo, rat; conditions: for nicotine-induced seizures (percentage of rats that seized): 0.1, 0.3, 1.0 mg/kg s.c. 15 min before nicotine 3.6 mg/kg s.c.; for duration and severity of seizure vs saline comparison group / seizure latency vs saline control: 0.3 and 1.0 mg/kg s.c.
[4] = test system: vagotomized, pithed and artificially respired rats; experiment: Pithed rat: cardiovascular responses to sympathetic nerve stimulation (Example 3); type: in vivo; conditions: for stimulation-induced increases in MAP: 0.8 and 2.2 Hz stimulation, i.v. bolus; for increases in heart rate (δ HR) vs saline-treated rats: 2.2 Hz, highest dose (10 mg/kg i.v.)
TS patients = conditions: Tourette's Syndrome patients; cited from earlier work
nicotine receptors = experiment: Oocyte electrophysiology, recovery time course and agonist test, receptor subtype not specified (Example 4); type: cell-based, human
[5] = target: hDAT (dopamine transporter) (Homo sapiens, UniProt Q01959); experiment: [125I]RTI-55 binding, HEK293-hDAT membranes (Example 5); conditions: [125I]RTI-55 competition
[6] = target: α1β1δε mouse muscle receptors (Mus musculus, UniProt P02716+P04756+P09690+P20782); experiment: Oocyte electrophysiology, muscle receptor selectivity (Example 4); type: cell-based
Protocol: (§1) For electrophysiology, oocyte recordings were made with an oocyte amplifier (e.g., Warner Instruments, Hamden, Conn., No. OC-725C) and RC-8 recording chamber. Oocytes were placed in the recording chamber with a total volume of about 0.6 ml and perfused at room temperature by frog Ringer's solution (115 mM NaCl, 2.5 mM KCl, 10 mM HEPES pH 7.3, and 1.8 mM CaCl2) containing 1 µM atropine to inhibit potential muscarinic responses. A Mariotte flask filled with Ringer's solution was used to maintain a constant hydrostatic pressure for drug delivery and washes. Drugs were diluted in perfusion solution and loaded into a 2 ml loop at the terminus of the perfusion line. A bypass of the drug-loading loop allowed bath solution to flow continuously while the drug loop was loaded. The drug application was synchronized with data acquisition by using a 2-way electronic valve. The rate of bath solution exchange and drug application was preferably about 6 ml/min. Current electrodes were filled with a solution containing 250 mMCsCl, 250 mM CsF and 100 mM EGTA and had resistances of 0.5-2 MΩ. Voltage electrodes were filed with 3M KCl and have resistances of 1-3MΩ. Oocytes with resting membrane potentials more positive than −30 mV were not used.
(§2) Holding currents immediately before agonist application were subtracted from measurements of the peak response to agonist. […]

[7] = target: NMDA receptor subunits NR1 and NR2b (Homo sapiens, UniProt Q05586+Q13224); experiment: Oocytes coexpressing NMDA receptor subunits (Example 4); type: cell-based; conditions: 100 μM; reversible after a 5-min wash
Protocol: as §1, §2

Swiss-Webster mice [8] = experiment: Locomotor depression test, compound alone (Example 6); type: in vivo, mouse
[9] = target: hNET (norepinephrine transporter) (Homo sapiens, UniProt P23975); experiment: [125I]RTI-55 binding, HEK293-hNET membranes (Example 5); conditions: [125I]RTI-55 competition
Sprague-Dawley rats [10] = experiment: Effects of mecamylamine alone at high dose: seizures and spontaneous locomotor activity (Example 2); type: in vivo, rat; conditions: 10 mg/kg s.c., 30 min
Protocol: Male Sprague-Dawley rats (n=96) weighing between 200 and 250 grams upon arrival were used for this study (Harlan Laboratories, Ind.). The rats were housed two per cage, allowed one week to acclimate to animal facility before testing, kept on a reverse lighting schedule (7:00-19:00 lights off), and allowed free access to food and water. Testing occurred between 10:00 a.m. and 3:00 p.m. in a dimly lit room maintained at 22° C. The experimental procedures carried out in this study were in compliance with the Guide for the Care and Use of Laboratory Animals (National Research Council, 1996) and had the prior approval of the University of South Florida Institutional Animal Care and Use Committee.
Observation of seizures and locomotor recordings were carried out in clear acrylic 41×41×30 cm test chambers inside Digiscan activity monitors (Accuscan, Inc.). Each monitor employs two arrays of infrared photocell beams (8×8 photocells, model RXYZCM-8) to detect several parameters of the rat's movement both horizontally and vertically. Data were collected in 5-min bins during testing.
All drugs were dissolved in physiological saline, and nicotine was adjusted to pH with HCl to 7.40. […] All doses are expressed as the free base of the drug. […]
Data was analyzed using a one-way analysis of variance followed by Fishers least significance test for multiple comparisons. […]

human α4β2 receptors = target: T1, human α4β2 receptors (Homo sapiens, UniProt P17787+P43681); experiment: Two-electrode voltage clamp, Xenopus oocytes expressing α4β2 receptors (Example 4); type: cell-based
T1 construct: expressed in transfected cells; host or cells: Xenopus laevis oocytes, cRNA injection
Protocol: Voltage dependence and binding reversibility also were determined. Mature female Xenopus laevis African toads were used as a source of oocytes. After linearization and purification of cloned cDNAs, RNA transcripts were prepared in vitro using the appropriate mMessage mMachine® kit from Ambion Inc. (Austin Tex.). Harvested oocytes were treated with collagenase (Worthington Biochemical Corporation, Freehold N.J.) for two hr at room temperature in calcium-free solution. Subsequently stage 5 oocytes were isolated and injected with 50 nL each of a mixture of the appropriate subunit(s) cRNAs. Recordings were made about 1-7 days after cRNA injection.
as §1, with “Voltage electrodes were filed with 3M KCl and have resistances of 1-3MΩ. Oocytes with resting membrane potentials more positive than −30 mV were not used.” left out
For experiments assessing voltage-dependence of drug inhibition, oocytes were initially voltage clamped at a holding potential of −40 mV or −90 mV and […] control application of ACh alone was delivered. […] Residual inhibition was evaluated with a subsequent application of ACh alone at the test potential, after a 5-min wash period.

Swiss-Webster mice [11] = experiment: Cocaine interaction study, locomotor activity (Example 6); type: in vivo, mouse; conditions: 10 mg/kg ip + cocaine 20 mg/kg ip
human α3β2 receptors = target: T2, human α3β2 receptors (Homo sapiens, UniProt P17787+P32297); experiment: Two-electrode voltage clamp, Xenopus oocytes expressing α3β2 receptors (Example 4); type: cell-based
T2 construct: expressed in transfected cells; host or cells: Xenopus laevis oocytes, cRNA injection

[12] = target: hSERT (serotonin transporter) (Homo sapiens, UniProt P31645); experiment: [125I]RTI-55 binding, HEK293-hSERT membranes (Example 5); conditions: [125I]RTI-55 competition
human α7 receptors = target: T3, human α7 receptors (Homo sapiens, UniProt P36544); experiment: Two-electrode voltage clamp, Xenopus oocytes expressing α7 receptors (Example 4); type: cell-based
T3 construct: expressed in transfected cells; host or cells: Xenopus laevis oocytes, cRNA injection

human α3β4 receptors = target: T4, human α3β4 receptors (Homo sapiens, UniProt P30926+P32297); experiment: Two-electrode voltage clamp, Xenopus oocytes expressing α3β4 receptors (Example 4); type: cell-based
T4 construct: expressed in transfected cells; host or cells: Xenopus laevis oocytes, cRNA injection

[13] = 0.1 mg/kg s.c., nicotine 3.6 mg/kg
[14] = after co-application of 10 μM with ACh

T2 sequence (P32297 32-505): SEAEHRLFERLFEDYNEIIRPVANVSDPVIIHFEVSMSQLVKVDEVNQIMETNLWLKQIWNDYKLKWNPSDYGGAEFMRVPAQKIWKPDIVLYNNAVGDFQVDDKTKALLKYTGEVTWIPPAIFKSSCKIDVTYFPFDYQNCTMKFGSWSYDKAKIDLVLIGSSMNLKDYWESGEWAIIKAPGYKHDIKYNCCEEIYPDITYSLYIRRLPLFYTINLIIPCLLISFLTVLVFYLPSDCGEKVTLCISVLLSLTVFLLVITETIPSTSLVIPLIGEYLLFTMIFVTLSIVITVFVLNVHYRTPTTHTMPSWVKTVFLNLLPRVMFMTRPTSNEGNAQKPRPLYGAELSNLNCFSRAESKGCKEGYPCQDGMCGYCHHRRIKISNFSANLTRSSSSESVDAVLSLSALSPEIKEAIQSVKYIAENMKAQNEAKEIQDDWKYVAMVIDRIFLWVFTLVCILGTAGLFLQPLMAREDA
T2 sequence (P17787 26-502): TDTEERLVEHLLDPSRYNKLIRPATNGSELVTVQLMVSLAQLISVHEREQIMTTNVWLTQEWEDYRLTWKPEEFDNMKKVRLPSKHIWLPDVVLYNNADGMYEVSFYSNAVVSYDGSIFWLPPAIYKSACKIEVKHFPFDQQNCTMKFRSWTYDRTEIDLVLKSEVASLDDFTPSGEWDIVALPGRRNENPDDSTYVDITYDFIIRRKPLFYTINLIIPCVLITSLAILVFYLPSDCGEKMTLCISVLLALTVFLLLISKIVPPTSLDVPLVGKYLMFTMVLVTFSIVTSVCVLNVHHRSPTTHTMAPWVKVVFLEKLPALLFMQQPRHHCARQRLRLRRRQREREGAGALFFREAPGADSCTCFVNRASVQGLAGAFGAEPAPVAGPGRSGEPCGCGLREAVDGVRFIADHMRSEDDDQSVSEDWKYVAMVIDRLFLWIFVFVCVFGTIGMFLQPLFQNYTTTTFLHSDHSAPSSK
T1 sequence (P43681 29-627 limits assumed): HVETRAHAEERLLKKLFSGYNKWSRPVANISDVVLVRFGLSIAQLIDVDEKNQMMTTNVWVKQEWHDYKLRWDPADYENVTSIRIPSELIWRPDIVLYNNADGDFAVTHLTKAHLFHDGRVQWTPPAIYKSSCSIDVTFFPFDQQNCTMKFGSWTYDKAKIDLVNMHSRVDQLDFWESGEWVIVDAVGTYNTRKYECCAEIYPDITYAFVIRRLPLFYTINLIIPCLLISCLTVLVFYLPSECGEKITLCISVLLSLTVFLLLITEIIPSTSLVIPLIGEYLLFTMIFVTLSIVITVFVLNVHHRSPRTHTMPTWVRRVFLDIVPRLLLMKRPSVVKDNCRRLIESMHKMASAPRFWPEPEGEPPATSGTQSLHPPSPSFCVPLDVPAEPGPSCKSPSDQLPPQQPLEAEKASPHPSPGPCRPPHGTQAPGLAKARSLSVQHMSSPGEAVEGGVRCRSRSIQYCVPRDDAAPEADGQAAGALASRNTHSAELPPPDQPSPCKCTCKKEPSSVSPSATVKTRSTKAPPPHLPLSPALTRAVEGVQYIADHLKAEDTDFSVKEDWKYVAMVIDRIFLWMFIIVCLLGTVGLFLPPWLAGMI
T1 sequence (P17787 26-502): as the sequence (P17787 26-502) above
T3 sequence (P36544 23-502): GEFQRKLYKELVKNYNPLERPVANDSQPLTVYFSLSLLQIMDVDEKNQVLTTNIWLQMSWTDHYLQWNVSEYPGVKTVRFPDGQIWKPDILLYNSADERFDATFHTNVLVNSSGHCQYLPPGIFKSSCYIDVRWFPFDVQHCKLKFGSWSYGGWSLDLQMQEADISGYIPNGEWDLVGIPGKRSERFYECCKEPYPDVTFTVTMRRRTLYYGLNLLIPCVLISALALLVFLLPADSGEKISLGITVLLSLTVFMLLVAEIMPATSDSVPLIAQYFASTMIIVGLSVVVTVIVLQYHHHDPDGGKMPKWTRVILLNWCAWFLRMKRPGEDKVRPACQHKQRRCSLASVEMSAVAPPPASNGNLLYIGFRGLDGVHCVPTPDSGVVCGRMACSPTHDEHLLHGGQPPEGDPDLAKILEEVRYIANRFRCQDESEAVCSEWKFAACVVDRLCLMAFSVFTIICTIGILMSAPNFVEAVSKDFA
T4 sequence (P32297 32-505): as the sequence (P32297 32-505) above
T4 sequence (P30926 22-498): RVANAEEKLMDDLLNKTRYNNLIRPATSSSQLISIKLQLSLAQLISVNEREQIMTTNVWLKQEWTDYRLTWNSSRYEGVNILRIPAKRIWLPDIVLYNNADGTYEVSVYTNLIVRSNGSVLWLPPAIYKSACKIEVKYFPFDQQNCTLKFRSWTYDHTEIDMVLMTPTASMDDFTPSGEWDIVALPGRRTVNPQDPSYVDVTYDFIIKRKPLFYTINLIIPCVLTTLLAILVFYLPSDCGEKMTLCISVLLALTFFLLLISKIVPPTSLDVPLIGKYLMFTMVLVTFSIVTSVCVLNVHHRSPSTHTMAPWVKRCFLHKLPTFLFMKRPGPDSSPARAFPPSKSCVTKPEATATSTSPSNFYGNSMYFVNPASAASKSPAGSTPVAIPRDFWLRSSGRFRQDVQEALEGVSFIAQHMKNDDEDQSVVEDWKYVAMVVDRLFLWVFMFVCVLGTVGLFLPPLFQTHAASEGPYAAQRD
Sequence of α1β1δε mouse muscle receptors (P04756 21-457): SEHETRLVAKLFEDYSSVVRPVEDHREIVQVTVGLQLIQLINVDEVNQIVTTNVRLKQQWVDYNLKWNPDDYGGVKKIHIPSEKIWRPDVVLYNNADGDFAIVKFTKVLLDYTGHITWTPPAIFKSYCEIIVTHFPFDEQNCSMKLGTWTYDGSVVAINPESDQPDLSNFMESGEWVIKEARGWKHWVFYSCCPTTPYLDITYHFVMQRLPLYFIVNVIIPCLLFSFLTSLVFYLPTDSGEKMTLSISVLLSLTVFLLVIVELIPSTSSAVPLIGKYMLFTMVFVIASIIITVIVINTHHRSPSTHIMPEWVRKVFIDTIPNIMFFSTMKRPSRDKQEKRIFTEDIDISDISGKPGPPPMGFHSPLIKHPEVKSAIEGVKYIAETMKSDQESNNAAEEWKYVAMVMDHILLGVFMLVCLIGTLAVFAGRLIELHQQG
Sequence of α1β1δε mouse muscle receptors (P09690 24-501): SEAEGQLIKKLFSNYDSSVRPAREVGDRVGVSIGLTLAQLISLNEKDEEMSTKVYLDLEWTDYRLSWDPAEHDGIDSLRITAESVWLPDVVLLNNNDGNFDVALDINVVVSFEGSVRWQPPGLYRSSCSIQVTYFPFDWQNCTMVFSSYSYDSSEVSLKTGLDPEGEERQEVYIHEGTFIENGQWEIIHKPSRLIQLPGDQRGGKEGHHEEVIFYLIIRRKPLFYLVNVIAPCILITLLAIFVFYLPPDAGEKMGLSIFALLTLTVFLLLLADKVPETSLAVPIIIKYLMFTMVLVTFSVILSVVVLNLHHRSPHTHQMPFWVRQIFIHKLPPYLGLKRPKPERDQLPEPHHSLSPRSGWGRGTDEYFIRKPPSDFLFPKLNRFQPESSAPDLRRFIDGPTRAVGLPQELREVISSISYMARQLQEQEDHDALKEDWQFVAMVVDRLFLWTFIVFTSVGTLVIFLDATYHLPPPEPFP
Sequence of α1β1δε mouse muscle receptors (P02716 25-520): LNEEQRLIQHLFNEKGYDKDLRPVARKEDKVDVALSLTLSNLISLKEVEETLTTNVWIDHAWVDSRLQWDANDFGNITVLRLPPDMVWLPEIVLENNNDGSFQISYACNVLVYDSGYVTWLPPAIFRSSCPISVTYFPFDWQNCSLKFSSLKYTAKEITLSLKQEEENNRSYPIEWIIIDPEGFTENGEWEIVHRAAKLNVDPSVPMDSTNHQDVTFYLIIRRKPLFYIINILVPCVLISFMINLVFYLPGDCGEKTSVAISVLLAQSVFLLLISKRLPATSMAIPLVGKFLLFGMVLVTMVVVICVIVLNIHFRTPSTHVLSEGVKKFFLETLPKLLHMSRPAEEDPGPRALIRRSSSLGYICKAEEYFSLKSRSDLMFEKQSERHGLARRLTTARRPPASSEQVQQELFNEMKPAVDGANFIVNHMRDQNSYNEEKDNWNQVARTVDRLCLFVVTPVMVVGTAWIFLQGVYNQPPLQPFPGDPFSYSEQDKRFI
Sequence of α1β1δε mouse muscle receptors (P20782 21-493): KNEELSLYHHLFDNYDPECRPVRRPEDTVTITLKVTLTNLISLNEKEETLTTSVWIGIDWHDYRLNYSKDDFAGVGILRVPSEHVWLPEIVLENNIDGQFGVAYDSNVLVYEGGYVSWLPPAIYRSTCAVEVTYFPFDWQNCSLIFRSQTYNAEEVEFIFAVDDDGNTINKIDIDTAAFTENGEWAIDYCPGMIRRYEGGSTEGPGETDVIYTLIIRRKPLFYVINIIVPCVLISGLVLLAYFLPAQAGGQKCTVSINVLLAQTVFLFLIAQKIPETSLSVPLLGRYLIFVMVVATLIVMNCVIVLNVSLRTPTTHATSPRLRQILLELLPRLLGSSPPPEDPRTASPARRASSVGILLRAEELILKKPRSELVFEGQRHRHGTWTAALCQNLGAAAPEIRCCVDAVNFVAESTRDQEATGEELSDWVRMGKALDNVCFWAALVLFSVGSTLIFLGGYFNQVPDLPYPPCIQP

Compound: CN[C@]1(C)[C@H]2CC[C@H](C2)C1(C)C [exo-R-mecamylamine, reference compound]
- effectiveness of isomers compared, particularly center distance and vertical activity [1]: generally more effective at lower doses
- plasma DA levels on sympathetic stimulation vs baseline ([2]; 2.2 Hz): significant increases in plasma DA levels
- stimulation-induced increases in plasma NE levels vs saline ([2]; 2.2 Hz): significantly less
- duration of seizure vs saline comparison group (Sprague-Dawley rats [3]; [13]): did not differ from their saline comparison group
- nicotine-induced seizures (percentage of rats that seized) (Sprague-Dawley rats [3]): prevented nicotine-induced seizures in a dose-dependent manner
- duration and severity of seizure vs saline comparison group (Sprague-Dawley rats [3]; nicotine 3.6 mg/kg): significantly different from their saline comparison groups
- seizure latency vs saline control (Sprague-Dawley rats [3]; nicotine 3.6 mg/kg): significantly longer latency
- stimulation-induced increases in MAP [4]: completely abolished
- increases in heart rate (δ HR) vs saline-treated rats [4]: significantly lowered the increases in heart rate

Compound: O=C(CCCN1CCC(O)(c2ccc(Cl)cc2)CC1)c1ccc(F)cc1 [haloperidol]
- cases in which treatment is effective / success rate for motor and vocal tics (TS patients): about 70%

Compound: CN[C@@]1(C)[C@@H]2CC[C@@H](C2)C1(C)C [exo-S-mecamylamine, exo-S-N,2,3,3-tetramethyl-bicycl-o-[2.1.1]heptan-2-amine hydrochloride]
- initial inhibition (nicotine receptors; co-application of 10 μM and ACh at control concentration): greater than 50%
- off-loading from some receptors (nicotine receptors; compared with exo-R-mecamylamine): slower than exo-R-mecamylamine
- affinity for binding site compared with cocaine [5]: lower than the affinity of cocaine
- inhibition of muscle receptors after wash ([6]; 5-min wash): fully reversed
- effect on muscle receptors ([6]; control ACh 3 μM): very little effect
- inhibition of response to 10 μM glutamate+10 μM glycine [7]: transient inhibition
- stimulation-induced increases in plasma NE levels vs saline ([2]; 2.2 Hz): significantly decreased stimulation-evoked plasma NE increases
- stimulation-induced plasma EPI responses ([2]; 2.2 Hz): significant decrease in stimulation-induced plasma EPI responses
- overall effectiveness on plasma CA and sympathetically-mediated cardiovascular responses ([2]; of the three forms): most effective in reducing plasma CA
- effect on locomotor activity in the last 30 minutes of testing (Swiss-Webster mice [8]; 1 and 3 mg/kg ip): Stimulant effects
- dose producing one half of the maximal depressant activity (Swiss-Webster mice [8]; ip, 20 min before testing, maximal depression = 0 counts in 30 minutes): 8.5 mg/kg
- affinity for binding site compared with cocaine [9]: lower than the affinity of cocaine
- spontaneous locomotor activity, total distance traveled (Sprague-Dawley rats [10]): signigicantly less locomotor depressant effects
- voltage dependence of inhibition (human α4β2 receptors; 5 μM, -40 mV vs 90 mV [sic]): significant voltage dependence
- residual inhibition: control ACh response 5 min after exposure (human α4β2 receptors; 5 min wash): greatest for β2-containing receptors
- time constant of recovery, compared with α3β2 (human α4β2 receptors; [14]): similar
- locomotion at 30 minutes vs saline/cocaine (Swiss-Webster mice [11]): significantly different from the result of cocaine alone
- voltage dependence of inhibition (human α3β2 receptors; 5 μM, -40 mV vs 90 mV [sic]): significantly different responses
- residual inhibition: control ACh response 5 min after exposure (human α3β2 receptors; 5 min wash): greatest for β2-containing receptors
- time constant of recovery (human α3β2 receptors; [14]): about 33 min
- duration of seizure vs saline comparison group (Sprague-Dawley rats [3]; [13]): significantly different from their saline comparison groups
- seizure latency vs saline comparison group (Sprague-Dawley rats [3]; [13]): significantly longer seizure latency
- nicotine-induced seizures (percentage of rats that seized) (Sprague-Dawley rats [3]): prevented nicotine-induced seizures in a dose-dependent manner
- duration and severity of seizure vs saline comparison group (Sprague-Dawley rats [3]; nicotine 3.6 mg/kg): significantly different from their saline comparison groups
- seizure latency vs saline control (Sprague-Dawley rats [3]; nicotine 3.6 mg/kg): significantly longer latency
- number of rats with nicotine-seizures compared with exo-R-mecamylamine (Sprague-Dawley rats [3]; lowest dose 0.1 mg/kg): fewer rats had nicotine-seizures
- affinity for binding site compared with cocaine [12]: lower than the affinity of cocaine
- voltage dependence of inhibition (human α7 receptors; 10 μM, -40 mV vs 90 mV [sic]): significantly different responses
- residual inhibition: control ACh response 5 min after exposure (human α7 receptors; 5 min wash): least for α7 receptors
- IC50 rank among receptor subtypes (human α7 receptors; control ACh 300 μM, -50 mV): least potent at inhibiting α7 receptors
- voltage dependence of inhibition (human α3β4 receptors; 1 μM, -40 mV vs 90 mV [sic]): significant voltage dependence
- residual inhibition: control ACh response 5 min after exposure (human α3β4 receptors; 5 min wash): marked decrease in subsequent control response to ACh
- stimulation-induced increases in MAP [4]: completely abolished
- increases in heart rate (δ HR) vs saline-treated rats [4]: significantly lowered the increases in heart rate
- potency rank, stimulation-induced pressor responses ([4]; of the three forms): most potent

Compound: Clc1cccc(Cl)c1N=C1NCCN1 [clonidine]
- cases in which treatment is effective / success rate for motor and vocal tics (TS patients): 40%

— patent publication US10188613B2 (UNIVERSITY OF SOUTH FLORIDA, priority 1998, dated 2019)
